Data: PubChem BioAssay (NCI)
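Where inhibition never reached the appropriate level, the endpoint shown equals the highest concentration tested. Otherwise, values were interpolated linearly from a five-concentration, 48-hour dose response in 96-well plates. GI50: concentration for 50% inhibition of growth. Definition used: TGI = concentration required for complete inhibition of growth.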

Key:
Experiment in all cases: DTP human tumour cell line panel, 48 h
CAKI-1 renal = system: CAKI-1 renal
M14 melanoma = system: M14 melanoma
A498 renal = system: A498 renal
786-0 renal = system: 786-0 renal
SK-MEL-5 melanoma = system: SK-MEL-5 melanoma
HCC-2998 colon = system: HCC-2998 colon
DU-145 prostate = system: DU-145 prostate
EKVX NSCLC = system: EKVX NSCLC
NCI-H23 lung = system: NCI-H23 lung
SK-MEL-2 melanoma = system: SK-MEL-2 melanoma
K-562 leukemia = system: K-562 leukemia
RPMI-8226 leukemia = system: RPMI-8226 leukemia
OVCAR-4 ovarian = system: OVCAR-4 ovarian
MDA-MB-435 = system: MDA-MB-435
PC-3 prostate = system: PC-3 prostate
ACHN renal = system: ACHN renal
NCI-H460 lung = system: NCI-H460 lung
U251 CNS = system: U251 CNS
KM12 colon = system: KM12 colon
BT-549 breast = system: BT-549 breast
HCT-116 colon = system: HCT-116 colon
MALME-3M melanoma = system: MALME-3M melanoma
NCI/ADR-RES ovarian = system: NCI/ADR-RES ovarian
T-47D breast = system: T-47D breast
HOP-92 NSCLC = system: HOP-92 NSCLC
SF-539 CNS = system: SF-539 CNS
UO-31 renal = system: UO-31 renal
HL-60(TB) leukemia = system: HL-60(TB) leukemia
MCF7 breast = system: MCF7 breast
A549 NSCLC = system: A549 NSCLC
UACC-257 melanoma = system: UACC-257 melanoma
RXF 393 renal = system: RXF 393 renal
NCI-H226 lung = system: NCI-H226 lung
OVCAR-5 ovarian = system: OVCAR-5 ovarian
HS 578T breast = system: HS 578T breast
SNB-75 CNS = system: SNB-75 CNS
NCI-H522 lung = system: NCI-H522 lung
LOX IMVI melanoma = system: LOX IMVI melanoma
SK-OV-3 ovarian = system: SK-OV-3 ovarian
TK-10 renal = system: TK-10 renal
UACC-62 melanoma = system: UACC-62 melanoma
SN12C renal = system: SN12C renal
CCRF-CEM leukemia = system: CCRF-CEM leukemia
HT29 colon = system: HT29 colon
SK-MEL-28 melanoma = system: SK-MEL-28 melanoma
HOP-62 NSCLC = system: HOP-62 NSCLC
IGROV1 ovarian = system: IGROV1 ovarian
SF-268 CNS = system: SF-268 CNS
OVCAR-8 ovarian = system: OVCAR-8 ovarian
OVCAR-3 ovarian = system: OVCAR-3 ovarian
MOLT-4 leukemia = system: MOLT-4 leukemia
SF-295 CNS = system: SF-295 CNS
COLO 205 colon = system: COLO 205 colon
SNB-19 CNS = system: SNB-19 CNS
HCT-15 colon = system: HCT-15 colon
MDA-MB-231 breast = system: MDA-MB-231 breast
SW-620 colon = system: SW-620 colon
SR leukemia = system: SR leukemia

O=C1c2ccccc2C(=Cc2ccccc2)c2ccccc21
GI50 (CAKI-1 renal): 1.54 µM | TGI (CAKI-1 renal): 5.49 µM | GI50 (M14 melanoma): 2.21 µM | TGI (M14 melanoma): 7.86 µM | GI50 (A498 renal): 2.3 µM | TGI (A498 renal): 9.52 µM | GI50 (786-0 renal): 2.7 µM | TGI (786-0 renal): 6.94 µM | GI50 (SK-MEL-5 melanoma): 2.77 µM | TGI (SK-MEL-5 melanoma): 10.9 µM | GI50 (HCC-2998 colon): 2.69 µM | TGI (HCC-2998 colon): 10.1 µM | GI50 (DU-145 prostate): 2.44 µM | TGI (DU-145 prostate): 6.94 µM | GI50 (EKVX NSCLC): 2.93 µM | TGI (EKVX NSCLC): 37.9 µM | GI50 (NCI-H23 lung): 2.59 µM | TGI (NCI-H23 lung): 14.1 µM | GI50 (SK-MEL-2 melanoma): 1.78 µM | TGI (SK-MEL-2 melanoma): 4.95 µM | GI50 (K-562 leukemia): 0.673 µM | TGI (K-562 leukemia): 16 µM | GI50 (RPMI-8226 leukemia): 3 µM | TGI (RPMI-8226 leukemia): 14.6 µM | GI50 (OVCAR-4 ovarian): 4.31 µM | TGI (OVCAR-4 ovarian): 24.4 µM | GI50 (MDA-MB-435): 0.31 µM | TGI (MDA-MB-435): 11.9 µM | GI50 (PC-3 prostate): 2.26 µM | TGI (PC-3 prostate): 15.8 µM | GI50 (ACHN renal): 3.89 µM | TGI (ACHN renal): 13.4 µM | GI50 (NCI-H460 lung): 2.98 µM | TGI (NCI-H460 lung): 15 µM | GI50 (U251 CNS): 2.97 µM | TGI (U251 CNS): 9.23 µM | GI50 (KM12 colon): 1.8 µM | TGI (KM12 colon): 9.81 µM | GI50 (BT-549 breast): 3.71 µM | TGI (BT-549 breast): 15.6 µM | GI50 (HCT-116 colon): 1.89 µM | TGI (HCT-116 colon): 5.13 µM | GI50 (MALME-3M melanoma): 6.2 µM | TGI (MALME-3M melanoma): 23.4 µM | GI50 (NCI/ADR-RES ovarian): 1.6 µM | TGI (NCI/ADR-RES ovarian): 6.62 µM | GI50 (T-47D breast): 2.68 µM | TGI (T-47D breast): 9.65 µM | GI50 (HOP-92 NSCLC): 1.45 µM | TGI (HOP-92 NSCLC): 5.17 µM | GI50 (SF-539 CNS): 3.57 µM | TGI (SF-539 CNS): 11.9 µM | GI50 (UO-31 renal): 2.1 µM | TGI (UO-31 renal): 10.2 µM | GI50 (HL-60(TB) leukemia): 2.72 µM | TGI (HL-60(TB) leukemia): 62.8 µM | GI50 (MCF7 breast): 1.44 µM | TGI (MCF7 breast): 12 µM | GI50 (A549 NSCLC): 3.22 µM | TGI (A549 NSCLC): 9.97 µM | GI50 (UACC-257 melanoma): 5.22 µM | TGI (UACC-257 melanoma): 23.9 µM | GI50 (RXF 393 renal): 3.06 µM | TGI (RXF 393 renal): 9.63 µM | GI50 (NCI-H226 lung): 4.99 µM | TGI (NCI-H226 lung): 20.4 µM | GI50 (OVCAR-5 ovarian): 5.04 µM | TGI (OVCAR-5 ovarian): 16.9 µM | GI50 (HS 578T breast): 3.9 µM | TGI (HS 578T breast): > 100 µM | GI50 (SNB-75 CNS): 2.34 µM | TGI (SNB-75 CNS): 7.45 µM | GI50 (NCI-H522 lung): 1.55 µM | TGI (NCI-H522 lung): 5.63 µM | GI50 (LOX IMVI melanoma): 2.32 µM | TGI (LOX IMVI melanoma): 10.7 µM | GI50 (SK-OV-3 ovarian): 2.54 µM | TGI (SK-OV-3 ovarian): 9.05 µM | GI50 (TK-10 renal): 3.03 µM | TGI (TK-10 renal): 10.1 µM | GI50 (UACC-62 melanoma): 1.68 µM | TGI (UACC-62 melanoma): 10.3 µM | GI50 (SN12C renal): 2.97 µM | TGI (SN12C renal): 14.1 µM | GI50 (CCRF-CEM leukemia): 2.77 µM | TGI (CCRF-CEM leukemia): 29 µM | GI50 (HT29 colon): 1.17 µM | TGI (HT29 colon): 4.33 µM | GI50 (SK-MEL-28 melanoma): 4.23 µM | TGI (SK-MEL-28 melanoma): 17.4 µM | GI50 (HOP-62 NSCLC): 2.62 µM | TGI (HOP-62 NSCLC): 10.2 µM | GI50 (IGROV1 ovarian): 2.35 µM | TGI (IGROV1 ovarian): 11.4 µM | GI50 (SF-268 CNS): 3.34 µM | TGI (SF-268 CNS): 16.6 µM | GI50 (OVCAR-8 ovarian): 2.19 µM | TGI (OVCAR-8 ovarian): 5.26 µM | GI50 (OVCAR-3 ovarian): 2.56 µM | TGI (OVCAR-3 ovarian): 9.11 µM | GI50 (MOLT-4 leukemia): 4.74 µM | TGI (MOLT-4 leukemia): > 100 µM | GI50 (SF-295 CNS): 2.59 µM | TGI (SF-295 CNS): 13.6 µM | GI50 (COLO 205 colon): 2.2 µM | TGI (COLO 205 colon): 5.14 µM | GI50 (SNB-19 CNS): 3.61 µM | TGI (SNB-19 CNS): 16.9 µM | GI50 (HCT-15 colon): 2.16 µM | TGI (HCT-15 colon): 21.8 µM | GI50 (MDA-MB-231 breast): 2.78 µM | TGI (MDA-MB-231 breast): 35.9 µM | GI50 (SW-620 colon): 2.43 µM | TGI (SW-620 colon): 13.8 µM | GI50 (SR leukemia): 0.871 µM | TGI (SR leukemia): 18.3 µM
